{"source": "patent US20250257034A1", "about": "“INDOLE DERIVATIVES AS SEROTONERGIC AGENTS USEFUL FOR THE TREATMENT OF DISORDERS RELATED THERETO” (priority 2023, published 2025)", "biological_target": "T1, human 5-HT1A receptor (Homo sapiens, UniProt P08908)", "T1 sequence (P08908 1-422)": "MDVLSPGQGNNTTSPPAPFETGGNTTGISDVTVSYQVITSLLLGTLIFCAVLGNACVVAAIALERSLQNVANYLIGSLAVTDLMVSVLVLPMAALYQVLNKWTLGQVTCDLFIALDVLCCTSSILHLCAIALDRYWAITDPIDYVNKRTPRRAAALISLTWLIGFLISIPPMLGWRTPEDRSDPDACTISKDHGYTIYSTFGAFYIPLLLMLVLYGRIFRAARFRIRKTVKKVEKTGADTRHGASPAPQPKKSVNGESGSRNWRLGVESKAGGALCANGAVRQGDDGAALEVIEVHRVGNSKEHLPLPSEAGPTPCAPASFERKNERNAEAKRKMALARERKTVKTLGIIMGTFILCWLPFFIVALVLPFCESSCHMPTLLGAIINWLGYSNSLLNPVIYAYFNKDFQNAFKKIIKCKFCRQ", "test": "Human 5-HT1A functional FLIPR assay (agonist mode)", "format": "cell-based", "design": "expressed in transfected cells; host or cells: HTR1A&Gα15-CHO", "description": "The potential excitatory effects of compounds targeting on 5-hydroxytryptamine receptor 1A (5-HT1A) under agonist mode was assessed.\nHTR1A&Gα15-CH0 cells were cultured in DMEM/F12 medium containing 10% dialyzed FBS, 1×penicillin-streptomycin and 600 μg/mL Hygromycin B. The cells were passaged about three times a week, maintained between ˜30% to ˜90% confluence.\n1. The cell culture medium (DMEM/F12 medium containing 10% dialyzed FBS, 1×penicillin-streptomycin and 600 μg/mL Hygromycin B), TrypLE™ Express and DPBS was warmed to R.T. in advance.\n2. The cell culture medium was removed from flask. Washed cells with DPBS.\n3. 1 mL TrypLE™ Express was added to the flask, mixed well by gentle shaking and cells were incubated at 37° C. for a few minutes.\n4. The cells were checked for morphological change under microscope, the digestion was stopped by adding 2 mL cell culture medium to the flask when most of cells turned to round.\n5. The cell suspension was transferred into a 15 mL centrifuge tube, and then centrifuged at 1,200 rpm for 5 minutes.\n6. The supernatant was removed. The cell pellets were resuspended with 2 mL cell culture medium.\n7. The cell density was counted using a cell counter.\n8. Cells were diluted to 4×10^5/mL with cell culture medium.\n9. 30 μL/well cell suspensions were added into a 384-well cell plate (the cell density was 12,000 cells/well).\n10. The cell plate was incubated overnight at 37° C., 5% (v/v) CO2.\n1. On the day of experiments, culture medium was removed from the cell plate.\n2. 10 μL of assay buffer (20 mM HEPES, in 1x HBSS, pH 7.4) was added to each well of the cell plate.\n3. 2×dye solution was prepared following the manufacturer's instruction of the FLIPR® Calcium 6 assay kit: • i. The dye was diluted with assay buffer. • ii. probenecid was added to the final concentration of 5 mM. • iii. Vortexed vigorously for I-2 minutes, adjust pH to 7.4.\n4. 10 μL of 2×dye solution was added to each well of the cell plate.\n5. The cell plate was placed on plate shaker, followed by shaking at 600 rpm for 2 minutes.\n6. The plate was incubated at 37° C. for 2 hours followed by an additional 15-minute incubation at 25° C.\n1. Serotonin was prepared to the concentration of 10 mM with DMSO, 3-folds serial dilutions were performed with DMSO.\n2. Prepared the test compound to the concentration of 10 mM with DMSO, preform 3-folds serial dilutions with DMSO.\n3. The compounds were added to a 384-well compound source plate.\n4. 90 nL/well of serial diluted compounds were transferred from source plate to a 384-well compound plate by using an Echo.\n5. 30 μL/well of assay buffer was added to the compound plate.\n6. The plate was mixed on-plate shaker for 2 minutes.\n1. After the cells incubated with dye solution, the cell plate, compound plate containing 3×compounds and F LIP R tips were placed into F LIP R.\n2. 10 μL of 3×compounds were transferred from the compound plate to the cell plate by F LIP R.\n3. The plate was read for 160 sec with 1 sec interval to obtain the data of agonist mode.\n1. The normalized fluorescence reading (RFU) was calculated as shown below, wherein Fmax and Fmin stand for maximum and minimum of calcium signal during defined time window:\n2. EC50 was calculated by fitting RFU against log of compound concentrations with Hill equation using XLfit.\nHTR1A&Gα15-C H0 cells were cultured in DMEM/F 12 medium containing 10% dialyzed FBS, 1x penicillin-streptomycin and 600 μg/mL Hygromycin B. The cells were passaged about three times a week, maintained between ˜30% to ˜90% confluence.\n1. The cell culture medium (DMEM/F 12 medium containing 10% dialyzed FBS, 1x penicillin-streptomycin and 600 μg/mL Hygromycin B), TrypLE™ Express and DPBS was warmed to R.T. in advance.\n7. The cell density was counted using cell counter.\n9. 30 μL/well cell suspensions were added into a 384-well cell plate (The cell density was 12,000 cells/well).\n3. 2×dye solution was prepared following the manufacture's instruction of the F LIP R® Calcium 6 assay kit: • i.", "note": "Like-named read-outs stand apart in the source and are kept apart here."}
{"smiles": "COc1ccc2[nH]cc(CCN3CC[C@@H](OC)C3)c2c1", "note": "[(R) I-66, (R)-5-methoxy-3-(2-(3-methoxypyrrolidin-1-yl)ethyl)-1H-indole]", "values": [{"measurement": "EC50", "value": 977, "unit": "nM"}, {"measurement": "RFU@10 μM", "setting": "RFU=Fmax−Fmin (Table 47)", "value": "3,690 RFU"}]}
{"smiles": "COc1ccc2[nH]cc(CCN3CC[C@@H](OC(F)F)C3)c2c1", "note": "[(R) I-67, (R)-3-(2-(3-(Difluoromethoxy)pyrrolidin-1-yl)ethyl)-5-methoxy-1H-indole]", "values": [{"measurement": "EC50", "value": 1600, "unit": "nM"}, {"measurement": "RFU@10 μM", "setting": "RFU=Fmax−Fmin (Table 47)", "value": "3,988 RFU"}]}
{"smiles": "COc1ccc2[nH]cc(CCN3CC[C@H](OC(F)F)C3)c2c1", "note": "[(S) I-67, (S)-3-(2-(3-(Difluoromethoxy)pyrrolidin-1-yl)ethyl)-5-methoxy-1H-indole]", "values": [{"measurement": "EC50", "value": 187, "unit": "nM"}, {"measurement": "RFU@10 μM", "setting": "RFU=Fmax−Fmin (Table 47)", "value": "3,930 RFU"}]}
{"smiles": "[2H]C([2H])([2H])N(CCc1c[nH]c2ccc(SC)cc12)C([2H])([2H])[2H]", "note": "[Compound I-1, N,N-Bis(methyl-d3)-2-(5-(methylthio)-1H-indol-3-yl)ethan-1-amine]", "values": [{"measurement": "EC50", "value": 928, "unit": "nM"}, {"measurement": "RFU@10 μM", "setting": "RFU=Fmax−Fmin (Table 18)", "value": "2,858 RFU"}]}
{"smiles": "CCN(CC)CCc1c[nH]c2ccc(SC)cc12", "note": "[Compound I-12, N,N-Diethyl-2-(5-(methylthio)-1H-indol-3-yl)ethan-1-amine]", "values": [{"measurement": "EC50", "value": 675, "unit": "nM"}, {"measurement": "RFU@10 μM", "setting": "RFU=Fmax−Fmin (Table 18)", "value": "3,735 RFU"}]}
{"smiles": "CCN(C)CCc1c[nH]c2ccc(SC)cc12", "note": "[Compound I-13, N-Ethyl-N-methyl-2-(5-(methylthio)-1H-indol-3-yl)ethan-1-amine]", "values": [{"measurement": "EC50", "value": 693, "unit": "nM"}, {"measurement": "RFU@10 μM", "setting": "RFU=Fmax−Fmin (Table 18)", "value": "4,279 RFU"}]}
{"smiles": "CSc1ccc2[nH]cc(CCN(C(C)C)C(C)C)c2c1", "note": "[Compound I-17, N-Isopropyl-N-(2-(5-(methylthio)-1H-indol-3-yl)ethyl)propan-2-amine]", "values": [{"measurement": "EC50", "value": 3380, "unit": "nM"}, {"measurement": "RFU@10 μM", "setting": "RFU=Fmax−Fmin (Table 18)", "value": "2,289 RFU"}]}
{"smiles": "CSc1ccc2[nH]cc(CCN(C)C(C)C)c2c1", "note": "[Compound I-19, N-Methyl-N-(2-(5-(methylthio)-1H-indol-3-yl)ethyl)propan-2-amine]", "values": [{"measurement": "EC50", "value": 3870, "unit": "nM"}, {"measurement": "RFU@10 μM", "setting": "RFU=Fmax−Fmin (Table 18)", "value": "2,161 RFU"}]}
{"smiles": "COc1ccc2[nH]cc(CCN(C)CCOC(F)F)c2c1", "note": "[Compound I-71, 2-(Difluoromethoxy)-N-(2-(5-methoxy-1H-indol-3-yl)ethyl)-N-methylethan-1-amine]", "values": [{"measurement": "RFU@10 μM", "setting": "RFU=Fmax−Fmin (Table 47)", "value": "3,087 RFU"}, {"measurement": "EC50", "setting": "FLIPR calcium, agonist mode, HTR1A&Gα15-CHO cells (Table 47), read-out: h5-HT1A, EC50", "value": 1840, "unit": "nM"}]}
{"smiles": "CN(C)CCc1c[nH]c2ccc(OCCOC(F)F)cc12", "note": "[Compound I-128, 2-(5-(2-(Difluoromethoxy)ethoxy)-1H-indol-3-yl)-N,N-dimethylethan-1-amine]", "values": [{"measurement": "RFU@10 μM", "setting": "RFU=Fmax−Fmin (Table 47)", "value": 314, "unit": "RFU"}]}
{"smiles": "CN(CCOC(F)F)CCc1c[nH]c2ccccc12", "note": "[Compound I-130, N-(2-(1H-Indol-3-yl)ethyl)-2-(difluoromethoxy)-N-methylethan-1-amine]", "values": [{"measurement": "RFU@10 μM", "setting": "RFU=Fmax−Fmin (Table 47)", "value": 163, "unit": "RFU"}]}
{"smiles": "CN(C)CCc1c[nH]c2ccccc12", "note": "[DMT]", "values": [{"measurement": "RFU@10 μM", "setting": "RFU=Fmax−Fmin (Table 18)", "value": 204, "unit": "RFU"}, {"measurement": "RFU@10 μM", "setting": "RFU=Fmax−Fmin (Table 47)", "value": 204, "unit": "RFU"}]}
